Data published in US20110076272A1, “THERAPEUTIC METHODS AND COMPOSITIONS” (priority 2009, published 2011).

How the values were obtained:
[1] = system: purified recombinant human LOXL2; experiment: Amplex Red assay of LOXL2 enzymatic activity; format: biochemical
Method: A mouse anti-human LOXL2 antibody (AB0023) was obtained by immunization with full-length LOXL2 protein and purified by SEC-HPLC (Tosoh TSKGEL G3000SWXL 7.8×300). Analytical size exclusion chromatography was used to assess antibody stability and purity. Purified AB0023 was run on SDS-PAGE Coomassie (Invitrogen BT 4-12% Gels) reducing and non-reducing gels to assess purity. Potency was examined by ELISA to determine Kd, and effect on LOXL2 enzymatic activity was determined using an Amplex Red Assay (Molecular Probes/Invitrogen, Carlsbad, Calif.). Antibody concentration was measured by absorbance at 280 nm using an Extinction Coefficient Abs 0.1% of 1.4. Identity was assayed by isoelectric focusing (Invitrogen pH 3-10 IEF Gels). For safety analysis, endotoxin levels were measured at a sensitivity range of 0.01-1 EU/ml (Charles River EndoSafe PTS).

MCF7 cells = experiment: Induction of EMT-like phenotype by LOXL2-containing conditioned media (rhodamine-phalloidin staining); format: cell-based; details: MDA-MB231 or Hs-578t conditioned media; BAPN up to 2 mM
Method: Cells were seeded at 80% confluency, in an 8-chambered slide, 24 hours prior to the day of staining. After 24 hours, media was aspirated and the chambers were washed with PBS. Cells were then fixed with 4% Parafomaldehyde (PFA) for 20 minutes at room temperature and then permeabilized with 0.5% Saponin (JT Baker, Phillipsburg, N.J.) for 5 minutes at room temperature. Cells were then stained for 15 minutes at room temperature with a 1:100 dilution of rhodamine phalloidin (Invitrogen, Carlsbad, Calif.). Slides were mounted with Vectashield (Vector Laboratories, Burlingame, Calif.).
MCF7 or SW620 cells were seeded at 50,000 cells per well of an 8-chambered culture slide in HGDMEM (high-glucose Dulbecco's modified Eagle's medium containing 4.5 g/l glucose)+10% FBS, 2 mM L-glutamine, 24 hours prior to being exposed to conditioned medium (CM). 500 uls of fresh conditioned medium from MDA MB 231 cells was added to the chambers containing MCF7 cells. The cells were incubated with the CM for 48-96 hours. Conditioned medium from MCF7 or SW620 cells was used as a negative control. After 48-96 hours incubation with CM, the cells were stained with rhodamine-phalloidin as described above.

[2] = system: MDA-MB-435 established primary tumors; experiment: MDA-MB-435 established primary tumor xenograft model; format: in vivo, mouse; details: independent study; AB0023 5 mg/kg twice per week, BAPN 100 mg/kg daily
[3] = system: MDA-MB-435 established primary tumors; experiment: as above; format: in vivo, mouse; parameters: reduction in activated TAFs assessed by aSMA signal / reduction in VEGF signal versus vehicle-treated tumors / reduction in SDF-1/CXCL12 signal / reduction in LOXL2 signal: concentration or dose not given beside the values
Method: To provide growing tumor tissue stock for subsequent orthotopic implantation, five- to six-week-old nude mice (NCr nu/nu) were injected subcutaneously with 2×10^6 MDA-MB-435-GFP cells (Anticancer, Inc., San Diego, Calif.) on the right flank. For this purpose, cultures of MDA-MB-435-GFP cells were harvested and dissociated by trypsinization, washed three times with cold serum-containing medium, and then kept on ice until injection. Cells were injected into the subcutaneous space of the flank of the animal in a total volume of 0.1 ml, within 30 min of harvesting. The nude mice were sacrificed to harvest tumor tissue 4 to 6 weeks after tumor cell injection for surgical orthotopic implantation (SOI) of tumor fragments.
Tumor pieces (˜1 mm^3), extracted from subcutaneously-growing GFP-expressing breast tumors, were implanted by surgical orthotopic implantation (SOI) on the breast of female nude mice (NCr nu/nu). Treatments with AB0023 (anti-LOXL2 monoclonal antibody), M64 (anti-LOX monoclonal antibody) and vehicle (all via intraperitoneal injection) and with Taxotere (by intravenous injection) were initiated when the average primary tumor volume reached 75 mm^3. Mice were administered the antibodies at a dose of 30 mg/kg twice a week for 28 days and Taxotere, at 10 mg/kg, was administered once a week for 3 weeks.
Body weight and tumor size were recorded weekly. At the conclusion of the study, mice were sacrificed by cervical dislocation after being anesthetized with carbon dioxide. Primary breast tumors were imaged, harvested, cut in half symmetrically and snap-frozen for histological and immunohistochemical analyses.
The solutions used for the immunohistochemistry (IHC) protocols were obtained from Biocare Medical (Concord, Calif.) unless otherwise stated. All procedures were performed at room temperature. Slides were fixed with 4% PFA for 10 minutes and were subsequently treated with Peroxidazed-1 (Biocare Medical, Concord, Calif.) for 5 minutes. Then, the slides were background blocked with SNIPER (Biocare Medical, Concord, Calif.) for 10 minutes. Primary antibody (2-5 ug/ml final concentration) was diluted in Da Vinci Green Universal Diluent and applied to slides for 30 minutes. Slides were then rinsed in PBS-Tween-20. The Mach2 polymer kit was used for antigen detection by adding rabbit probe for 30 minutes. DAB chromagen was added to the slides for 3-5 minutes, then slides were rinsed once with deionized water. The slides were then counter-stained with hematoxylin, followed by dehydration with graded alcohol. The slides were mounted with entellan mounting medium (Electron Microscopy Sciences, Hatfield, Pa.).

[4] = biological target: T1, human lysyl oxidase-like 2 (LOXL2) (human, UniProt Q9Y4K0 26-774); experiment: cell-based or functional assay
T1 sequence (looked up): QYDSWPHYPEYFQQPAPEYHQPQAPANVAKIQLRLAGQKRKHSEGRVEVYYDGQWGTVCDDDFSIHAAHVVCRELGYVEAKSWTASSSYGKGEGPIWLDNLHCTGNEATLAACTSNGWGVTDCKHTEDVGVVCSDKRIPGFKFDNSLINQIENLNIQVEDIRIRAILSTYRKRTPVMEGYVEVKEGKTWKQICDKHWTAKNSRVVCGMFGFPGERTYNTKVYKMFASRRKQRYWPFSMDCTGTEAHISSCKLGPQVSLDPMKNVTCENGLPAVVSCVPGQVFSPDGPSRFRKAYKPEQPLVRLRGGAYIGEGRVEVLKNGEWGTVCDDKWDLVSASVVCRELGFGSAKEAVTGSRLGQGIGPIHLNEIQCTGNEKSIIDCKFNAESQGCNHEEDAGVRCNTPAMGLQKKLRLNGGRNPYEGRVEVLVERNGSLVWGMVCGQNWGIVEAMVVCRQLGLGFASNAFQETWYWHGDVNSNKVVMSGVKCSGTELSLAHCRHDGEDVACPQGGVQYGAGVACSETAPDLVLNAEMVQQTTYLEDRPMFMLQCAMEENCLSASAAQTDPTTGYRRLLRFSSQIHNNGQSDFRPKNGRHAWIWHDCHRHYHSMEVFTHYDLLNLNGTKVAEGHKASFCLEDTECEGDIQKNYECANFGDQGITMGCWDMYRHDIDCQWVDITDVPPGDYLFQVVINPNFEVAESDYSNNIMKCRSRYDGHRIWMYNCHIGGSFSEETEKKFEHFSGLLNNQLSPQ

lysyl oxidase (LOX) = biological target: T2, lysyl oxidase (LOX) (UniProt P28300 169-417, limits assumed); experiment: Western blot probed with AB0023 [Cont. 2) panel m]
T2 construct: Member of 'other lysyl oxidase-type enzymes'
T2 sequence (looked up): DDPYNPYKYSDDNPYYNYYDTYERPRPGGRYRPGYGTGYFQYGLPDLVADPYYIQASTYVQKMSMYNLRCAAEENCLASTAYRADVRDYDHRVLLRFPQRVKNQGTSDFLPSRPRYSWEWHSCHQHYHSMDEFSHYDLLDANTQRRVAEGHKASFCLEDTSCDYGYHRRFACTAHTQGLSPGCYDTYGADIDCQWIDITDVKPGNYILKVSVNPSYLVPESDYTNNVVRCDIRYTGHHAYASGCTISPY

[5] = biological target: T3, lysyl oxidase-like 3 (LOXL3) (UniProt P58215 26-753, limits assumed); experiment: Western blot probed with AB0023 [Cont. 2) panel m]
T3 construct: Member of 'other lysyl oxidase-type enzymes'; also called LOR-2
T3 sequence (looked up): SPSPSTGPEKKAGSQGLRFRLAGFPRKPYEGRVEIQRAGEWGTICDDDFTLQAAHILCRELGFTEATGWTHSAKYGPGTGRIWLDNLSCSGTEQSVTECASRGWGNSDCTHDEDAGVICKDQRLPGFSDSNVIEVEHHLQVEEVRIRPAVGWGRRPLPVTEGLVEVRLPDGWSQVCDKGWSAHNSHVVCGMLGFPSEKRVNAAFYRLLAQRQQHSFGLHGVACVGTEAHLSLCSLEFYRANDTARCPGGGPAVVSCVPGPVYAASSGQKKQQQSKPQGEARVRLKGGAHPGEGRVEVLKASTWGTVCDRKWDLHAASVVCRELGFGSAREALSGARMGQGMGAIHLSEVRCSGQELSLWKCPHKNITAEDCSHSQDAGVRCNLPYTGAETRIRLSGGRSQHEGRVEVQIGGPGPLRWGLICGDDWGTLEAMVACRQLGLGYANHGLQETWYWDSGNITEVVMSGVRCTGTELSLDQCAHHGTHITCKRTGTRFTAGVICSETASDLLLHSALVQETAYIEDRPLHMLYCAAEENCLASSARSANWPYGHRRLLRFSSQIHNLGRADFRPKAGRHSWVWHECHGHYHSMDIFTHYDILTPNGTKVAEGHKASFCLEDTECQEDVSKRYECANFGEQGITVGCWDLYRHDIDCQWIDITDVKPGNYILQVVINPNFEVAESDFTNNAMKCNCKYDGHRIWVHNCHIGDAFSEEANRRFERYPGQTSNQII

[6] = biological target: T4, lysyl oxidase-like 4 (LOXL4) (UniProt Q96JB6 25-756, limits assumed); experiment: Western blot probed with AB0023 [Cont. 2) panel m]
T4 construct: Member of 'other lysyl oxidase-type enzymes'
T4 sequence (looked up): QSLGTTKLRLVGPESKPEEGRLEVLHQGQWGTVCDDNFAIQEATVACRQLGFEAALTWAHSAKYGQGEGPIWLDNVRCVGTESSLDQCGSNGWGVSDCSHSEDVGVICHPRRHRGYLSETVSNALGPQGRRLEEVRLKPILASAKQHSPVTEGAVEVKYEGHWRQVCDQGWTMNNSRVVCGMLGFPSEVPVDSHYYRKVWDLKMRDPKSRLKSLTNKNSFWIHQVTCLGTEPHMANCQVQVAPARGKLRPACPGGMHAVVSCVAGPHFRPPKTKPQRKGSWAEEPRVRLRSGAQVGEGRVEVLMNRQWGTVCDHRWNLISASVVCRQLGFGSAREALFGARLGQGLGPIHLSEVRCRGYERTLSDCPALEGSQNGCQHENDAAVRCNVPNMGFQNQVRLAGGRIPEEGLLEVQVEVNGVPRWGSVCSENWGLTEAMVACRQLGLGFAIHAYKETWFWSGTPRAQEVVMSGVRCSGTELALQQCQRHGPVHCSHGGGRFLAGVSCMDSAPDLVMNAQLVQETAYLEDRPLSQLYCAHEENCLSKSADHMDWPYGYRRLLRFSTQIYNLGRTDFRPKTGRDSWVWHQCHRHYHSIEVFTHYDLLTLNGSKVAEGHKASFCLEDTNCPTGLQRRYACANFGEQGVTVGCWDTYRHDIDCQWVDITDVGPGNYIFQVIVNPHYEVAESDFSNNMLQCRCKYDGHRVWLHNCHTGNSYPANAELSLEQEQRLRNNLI

[7] = Pilot repeat-dose studies in cynomolgus monkeys; format: in vivo; details: repeat dosing at 100 mg/kg

In the case of `N#CCCN` [BAPN, beta-aminoproprionitrile, reference compound], the “mode of inhibition of LOXL2” value [1] is reported as “competitive inhibitor”, the “inhibition of LOXL2 enzymatic activity” value ([1]; in vitro) is reported as “inhibited” and the “IC50 for inhibition of LOXL2 (in words)” value ([1]; in vitro, FIG. 8 panel D) is reported as “low nanomolar”. The “remodeling of the actin cytoskeleton induced by LOXL2-containing conditioned media” value (MCF7 cells) was “not inhibited”, the “reduction in tumor vasculature, CD31 signal” value [2] was “no reduction” and the “reduction in tumor volume after 46 days” value [2] was 19%.

For `CC(=O)O[C@@]12CO[C@@H]1C[C@H](O)[C@@]1(C)C(=O)[C@H](O)C3=C(C)[C@@H](OC(=O)[C@H](O)[C@@H](NC(=O)OC(C)(C)C)c4ccccc4)C[C@@](O)([C@@H](OC(=O)c4ccccc4)[C@H]21)C3(C)C` [Taxotere, reference compound], the “levels of Beclin-1 (autophagy) in tumor cells” value ([3]; mouse, in vivo) was “increased”, the “reduction in Sirius red staining (crosslinked collagen, desmoplasia)” value ([3]; tumors harvested at day 39) was “No significant differences” and the “reduction in activated TAFs assessed by aSMA signal” value ([3]; tumors harvested at day 39) was “No significant differences”. The “reduction in tumor vasculature, CD31 signal” value ([3]; tumors harvested at day 39) was 43%.

B1: anti-LOXL2 monoclonal antibody AB0023 (antibody, V domains shown)
VH: QVQLQQSGAELVRPGTSVKVSCKASGYAFTYYLIEWVKQRPGQGLEWIGVINPGSGGTNYNEKFKGKATLTADKSSSTAYMQLSSLTSDDSAVYFCARNWMNFDYWGQGTTLTVSS
VL: DIVMTQAAPSVSVTPGESVSISCRSSKSLLHSNGNTYLYWFLQRPGQSPQFLIYRMSNLASGVPDRFSGSGSGTAFTLRISRVEAEDVGVYYCMQHLEYPYTFGGGTKLEIK
notes: Mouse monoclonal antibody from a hybridoma, raised against full-length LOXL2 and purified from ascites; also called mouse anti-human LOXL2 antibody; LOXL2-specific monoclonal antibody
For B1, the “IC50, HUVEC tube formation assay, FIG. 4 Panel I (mean total tubule length)” value [4] was 33.2 nM, the “apparent IC50 for inhibition of purified LOXL2 enzymatic activity” value [4] was ~30 nM and the binding result (lysyl oxidase (LOX)) was “no binding”. B1: no binding [5]; no binding [6].

B2: AB0024: humanized anti-LOXL2 variant of AB0023; heavy chain variable region SEQ ID NO:3, light chain SEQ ID NO:4 (antibody, listed as Mus musculus, V domains shown)
VH: QVQLVQSGAEVKKPGASVKVSCKASGYAFTYYLIEWVRQAPGQGLEWIGVINPGSGGTNYNEKFKGRATITADKSTSTAYMELSSLRSEDTAVYFCARNWMNFDYWGQGTTVTVSS
VL: DIVMTQTPLSLSVTPGQPASISCRSSKSLLHSNGNTYLYWFLQKPGQSPQFLIYRMSNLASGVPDRFSGSGSGTDFTLKISRVEAEDVGVYYCMQHLEYPYTFGGGTKVEIK
modifications: Humanized heavy chain; Humanized light chain
For B2, the “mode of inhibition of LOXL2” value [1] was “non-competitive allosteric inhibitors” and the tolerability [7] was “well tolerated”.
